Test systems include M14 melanoma; NCI-H460 lung; RXF 393 renal; MOLT-4 leukemia; SNB-78 CNS; KM20L2 colon; UACC-62 melanoma; HCC-2998 colon; OVCAR-8 ovarian; HOP-18 NSCLC; COLO 205 colon; MCF7 breast; T-47D breast; MDA-MB-231 breast; BT-549 breast; HS 578T breast; 786-0 renal; MDA-MB-435; MDA-N; DU-145 prostate.
Holding throughout (test): DTP human tumour cell line panel, 48 h

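Five concentrations, 48 hours, 96-well plates. TGI: concentration producing complete growth inhibition.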

Broadly, the TGI is the concentration giving total growth inhibition. A high value points to lower sensitivity of the cells. Regarding `CCO/N=[N+](\[O-])N(CC)CC`, the TGI in the assay on M14 melanoma, with NCI-H460 lung, in the assay on RXF 393 renal, in the assay with MOLT-4 leukemia, with SNB-78 CNS and with KM20L2 colon was above 100 µM in each case. Moreover, the TGI in the assay on UACC-62 melanoma, in the assay on HCC-2998 colon and in the assay on OVCAR-8 ovarian was above 100 µM throughout.
For `COc1ccc(-c2cc(N3CCN(c4ccccc4)CC3)c(C#N)c(=O)o2)cc1`, the TGI is 62.2 µM in the assay on HOP-18 NSCLC; above 100 µM in the assay with M14 melanoma; above 100 µM in the assay with NCI-H460 lung; above 100 µM with COLO 205 colon; 38 µM in the assay with RXF 393 renal; above 100 µM in the assay on MOLT-4 leukemia. Besides, the TGI in the assay with SNB-78 CNS was 59 µM; with KM20L2 colon, above 100 µM; in the assay on HCC-2998 colon, above 100 µM; in the assay with OVCAR-8 ovarian it was above 100 µM.
With `COc1cc(C2c3cc4c(cc3[C@@H](Nc3cccc(C(C)=O)c3)C3COC(=O)[C@H]23)OCO4)cc(OC)c1O` (some centres undefined), the total growth inhibition concentration (TGI) in the assay with HOP-18 NSCLC came to 54.3 µM; in the assay on MCF7 breast, 28.2 µM; in the assay with NCI-H460 lung, 1.07 µM; in the assay with COLO 205 colon it was 5.05 µM; in the assay on RXF 393 renal, 5.4 µM; with MOLT-4 leukemia, 0.129 µM. For the same molecule, the total growth inhibition concentration (TGI) was above 100 µM with SNB-78 CNS; above 23.3 µM with KM20L2 colon; 4.67 µM in the assay with UACC-62 melanoma; 3.23 µM with HCC-2998 colon; above 28.9 µM in the assay with OVCAR-8 ovarian.
`C=C1C(=O)OC2C1CC(O)/C(C)=C\CCC1(C)OC21` (centres undefined): the TGI in the assay on T-47D breast was above 100 µM; in the assay on MDA-MB-231 breast, 35.4 µM; in the assay on M14 melanoma it was 64.4 µM; in the assay on MCF7 breast it was 86.1 µM; with BT-549 breast, 43.2 µM; with HS 578T breast it was 67.9 µM. Also, the TGI is above 100 µM in the assay on 786-0 renal; above 100 µM in the assay on NCI-H460 lung; 89.9 µM in the assay on COLO 205 colon; 89.6 µM with MDA-MB-435; 31.8 µM in the assay on RXF 393 renal; 79.3 µM with MOLT-4 leukemia. Further, the TGI with MDA-N was 36.2 µM; in the assay with DU-145 prostate, above 100 µM; in the assay with UACC-62 melanoma, 61.1 µM; in the assay with HCC-2998 colon, 79.9 µM; with OVCAR-8 ovarian it was above 100 µM.
Consider `O=C(CSCC(=O)N/N=C\c1ccc(-c2ccccc2)cc1)N/N=C\c1ccc(-c2ccccc2)cc1`, for which the total growth inhibition concentration (TGI) in the assay with T-47D breast is above 100 µM; in the assay with MDA-MB-231 breast it was 25.2 µM; with M14 melanoma, 91.2 µM; in the assay with MCF7 breast, above 100 µM; in the assay on BT-549 breast, 66.3 µM; in the assay with HS 578T breast, 49.8 µM. Moreover, the total growth inhibition concentration (TGI) in the assay on 786-0 renal was above 100 µM; in the assay on NCI-H460 lung it was above 100 µM; in the assay with COLO 205 colon it was above 100 µM; in the assay with MDA-MB-435, 46.1 µM; in the assay with RXF 393 renal it was above 100 µM; with MOLT-4 leukemia, above 100 µM. For the same molecule, the TGI with DU-145 prostate is above 100 µM; in the assay on UACC-62 melanoma, 62.4 µM; in the assay on OVCAR-8 ovarian it was 58.2 µM.
Take `c1ccc(-c2nn(-c3ccccc3)[n+](-c3ccccc3)n2)cc1`: the TGI in the assay with T-47D breast is above 100 µM; in the assay on MDA-MB-231 breast it was above 100 µM; in the assay on M14 melanoma, 47.5 µM; in the assay with MCF7 breast, 25.9 µM; in the assay with BT-549 breast, above 100 µM; in the assay on HS 578T breast, above 100 µM. In addition, the concentration for total growth inhibition (TGI) in the assay on 786-0 renal was above 93.5 µM; in the assay on NCI-H460 lung, above 100 µM; with COLO 205 colon it was above 92.4 µM; in the assay with MDA-MB-435 it was 23.5 µM; in the assay on RXF 393 renal it was 80.6 µM; in the assay with MOLT-4 leukemia, above 100 µM. Also, the TGI in the assay with MDA-N is 31.5 µM; in the assay with DU-145 prostate, above 100 µM; in the assay with UACC-62 melanoma it was 40.9 µM; in the assay on HCC-2998 colon, 23.7 µM; in the assay with OVCAR-8 ovarian, above 100 µM.
With `CC(C)(Br)C1(O)CCCN1C(=O)c1ccccc1` (centres undefined), the TGI with HOP-18 NSCLC, in the assay with M14 melanoma, with NCI-H460 lung, in the assay on COLO 205 colon, in the assay with RXF 393 renal and in the assay with MOLT-4 leukemia was above 100 µM each time. Moreover, the total growth inhibition concentration (TGI) with SNB-78 CNS, in the assay on KM20L2 colon, in the assay with UACC-62 melanoma, with HCC-2998 colon and in the assay on OVCAR-8 ovarian was above 100 µM throughout.
Turning to `CN(C)c1ccc(N=Nc2ccccn2)cc1`, the TGI in the assay with T-47D breast is above 100 µM; with MDA-MB-231 breast it was above 100 µM; in the assay with M14 melanoma it was above 100 µM; in the assay on MCF7 breast, 14.6 µM; with BT-549 breast, above 100 µM; in the assay on HS 578T breast, above 100 µM. The TGI with 786-0 renal is above 100 µM; in the assay on NCI-H460 lung, above 100 µM; in the assay with COLO 205 colon it was 21.8 µM; in the assay on MDA-MB-435, above 100 µM; in the assay on RXF 393 renal it was above 100 µM; in the assay with MOLT-4 leukemia, 40.9 µM. Besides, the concentration for total growth inhibition (TGI) in the assay with MDA-N was above 100 µM; in the assay with DU-145 prostate it was above 100 µM; in the assay on UACC-62 melanoma it was above 100 µM; in the assay on HCC-2998 colon, 59.7 µM; in the assay on OVCAR-8 ovarian, above 100 µM.
With `CC12Cc3cc4c(cc3C1(c1ccc([N+](=O)[O-])cc1)OCCO2)OCO4` (centres undefined), the TGI was above 100 µM in the assay on T-47D breast; 42.3 µM in the assay with MDA-MB-231 breast; above 100 µM in the assay with M14 melanoma; above 100 µM in the assay on MCF7 breast; 91.9 µM in the assay on BT-549 breast; 86.4 µM with HS 578T breast. The total growth inhibition concentration (TGI) in the assay with 786-0 renal was above 100 µM; in the assay with NCI-H460 lung, above 100 µM; with COLO 205 colon, above 100 µM; in the assay with MDA-MB-435, above 100 µM; in the assay with RXF 393 renal, 51.6 µM; with MOLT-4 leukemia it was above 100 µM. In addition, the total growth inhibition concentration (TGI) is above 100 µM in the assay with MDA-N; above 100 µM in the assay on DU-145 prostate; above 100 µM in the assay on UACC-62 melanoma; above 100 µM in the assay on HCC-2998 colon; 64 µM in the assay on OVCAR-8 ovarian.

The record behind these values is PubChem BioAssay (NCI).
